Data published in the supplement of paper PMC5579334.

What was measured:
STS26T [1] = test: relative IC50 (inflection point of fitted dose-response curve, CellTiter-Glo viability, 72 h; top asymptote may be below 50% inhibition); higher = less potent
Summary of the method: (§1)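 For this screen, 384-well plates were preprinted with each compound at five concentrations in 10-fold steps and seeded with MPNST cell lines or primary human Schwann cells at 750–1000 cells per well. Incubation lasted 72 h at 37 °C, 5% CO2, and CellTiter-Glo ATP luminescence, scaled between vehicle and positive-control wells and averaged over duplicates where available, served as viability. Logistic fits with four parameters were applied. Relative IC50 (censored at the top concentration) and drug sensitivity score derive from these fits, and percent inhibition is at the top concentration.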

HSC1 [2] = test: as above
Summary of the method: as §1

S1507-2 [3] = test: as above
Summary of the method: as §1

HSC2 [4] = test: as above
Summary of the method: as §1

HS-Sch-2 = test: as above
Summary of the method: as §1

S462 = test: as above
Summary of the method: as §1

ST8814 [5] = test: as above
Summary of the method: as §1

HS-PSS [6] = test: as above
Summary of the method: as §1

YST-1 = test: as above
Summary of the method: as §1

STS26T [7] = test: relative IC50 (inflection point of fitted dose-response curve, CellTox-Green cytotoxicity, 72 h; top asymptote may be below 50%); higher = less potent
Summary of the method: (§2)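 MPNST cell lines and primary human Schwann cells were grown for 72 h at 37 °C in 384-well plates containing five 10-fold compound dilutions. CellTox-Green, added before seeding at a final 1:1000 dilution, gave fluorescence from DNA released by disrupted cells, and signals were scaled to vehicle and positive-control wells. Curves were fitted with a four-parameter logistic model. Drug sensitivity score and relative IC50 come from these fits, with IC50 censored at the top concentration.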

HSC1 [8] = test: as above
Summary of the method: as §2

S1507-2 [9] = test: as above
Summary of the method: as §2

HSC2 [10] = test: as above
Summary of the method: as §2

ST8814 [11] = test: as above
Summary of the method: as §2

HS-PSS [12] = test: as above
Summary of the method: as §2

| SMILES | relative IC50 (STS26T [1]) | relative IC50 (HSC1 [2]) | relative IC50 (S1507-2 [3]) | relative IC50 (HSC2 [4]) | relative IC50 (HS-Sch-2) | relative IC50 (S462) | relative IC50 (ST8814 [5]) | relative IC50 (HS-PSS [6]) | relative IC50 (YST-1) | relative IC50 (STS26T [7]) | relative IC50 (HSC1 [8]) | relative IC50 (S1507-2 [9]) | relative IC50 (HSC2 [10]) | relative IC50 (ST8814 [11]) | relative IC50 (HS-PSS [12]) |
| --- | --- | --- | --- | --- | --- | --- | --- | --- | --- | --- | --- | --- | --- | --- | --- |
| CN[C@@H]1C[C@H]2O[C@@](C)([C@@H]1OC)n1c3ccccc3c3c4c(c5c6ccccc6n2c5c31)C(=O)N[C@H]4O [UCN-01] | 44.3 nM | 44.8 nM | 19.3 nM | 24.8 nM | 63.3 nM | 29.5 nM | 51.9 nM | 121 nM | 85.9 nM | 24.9 nM | 459 nM | 159 nM | 158 nM | 257 nM | 2130 nM |
| CCCCCCCCc1ccc(CCC(N)(CO)CO)cc1 [Fingolimod] | 2620 nM | 2150 nM | 2030 nM | 2340 nM | 2480 nM | 3070 nM | 2770 nM | 1890 nM | 2940 nM | 3340 nM | 1950 nM | 1600 nM | 2220 nM | 3430 nM | 3160 nM |
| CNC(=O)c1cc(Oc2ccc(NC(=O)Nc3cc(C(C)(C)C)nn3-c3ccc4ncccc4c3)c(F)c2)ccn1 [Rebastinib] | > 1000 nM | > 1000 nM | > 1000 nM | > 1000 nM | > 1000 nM | > 1000 nM | > 1000 nM | > 1000 nM | > 1000 nM | > 1000 nM | > 1000 nM | > 1000 nM | > 1000 nM | > 1000 nM | > 1000 nM |
| COc1c(C)cnc(Cn2cnc3c(Cl)nc(N)nc32)c1C [BIIB021] | 247 nM | 395 nM | 268 nM | 297 nM | 95.1 nM | 186 nM | 280 nM | 424 nM | 328 nM | 316 nM | 217 nM | 484 nM | 231 nM | 587 nM | 396 nM |
| CC(C)(C#N)c1cc(Cn2cncn2)cc(C(C)(C)C#N)c1 [Anastrozole] | > 10000 nM | > 10000 nM | > 10000 nM | > 10000 nM | > 10000 nM | > 10000 nM | > 10000 nM | > 10000 nM | > 10000 nM | > 10000 nM | > 10000 nM | > 10000 nM | > 10000 nM | > 10000 nM | > 10000 nM |
| COc1ccccc1S(=O)(=O)Nc1ccc2c(c1)CN(C)C(=O)N2 [PFI-1] | 1470 nM | 2820 nM | 1670 nM | 2120 nM | 1670 nM | 1710 nM | 1530 nM | 3730 nM | 1720 nM | > 10000 nM | > 10000 nM | 3630 nM | > 10000 nM | 2080 nM | > 10000 nM |
| COc1cc(Nc2c(C#N)cnc3cc(OCCCN4CCN(C)CC4)c(OC)cc23)c(Cl)cc1Cl [Bosutinib] | 1270 nM | 1700 nM | 1410 nM | 1140 nM | 1600 nM | 1490 nM | 1460 nM | 3430 nM | 2590 nM | 2950 nM | 3330 nM | 3200 nM | 3250 nM | 2410 nM | 3310 nM |
| CCc1c2c(nc3ccc(OC(=O)N4CCC(N5CCCCC5)CC4)cc13)-c1cc3c(c(=O)n1C2)COC(=O)[C@]3(O)CC [Irinotecan] | 1790 nM | 406 nM | 1580 nM | 822 nM | 1340 nM | 1310 nM | 1210 nM | 2610 nM | 359 nM | 2360 nM | 2660 nM | 3670 nM | 2240 nM | 1940 nM | 2130 nM |
| Cn1cc(CNCC2CCN(c3ncc(C(=O)NO)cn3)CC2)c2ccccc21 [Quisinostat] | 43.4 nM | 34.5 nM | 18.3 nM | 56.8 nM | 45.5 nM | 20.4 nM | 16.6 nM | 42.8 nM | 8.58 nM | 105 nM | 208 nM | 44.8 nM | 226 nM | 56.1 nM | 131 nM |
| CO[C@H]1[C@@H](N(C)C(=O)c2ccccc2)C[C@@H]2O[C@@]1(C)n1c3ccccc3c3c4c(c5c6ccccc6n2c5c31)C(=O)NC4 [Midostaurin] | 436 nM | 112 nM | 282 nM | 155 nM | 409 nM | 580 nM | 443 nM | 465 nM | 163 nM | 323 nM | 901 nM | 395 nM | 243 nM | 274 nM | > 10000 nM |
| NS(=O)(=O)OC[C@@H]1C[C@@H](n2ccc3c(N[C@H]4CCc5ccccc54)ncnc32)C[C@@H]1O [Pevonedistat] | 520 nM | 513 nM | 208 nM | 380 nM | 46.8 nM | 95.2 nM | 187 nM | 89.6 nM | 128 nM | 137 nM | 737 nM | 291 nM | 1220 nM | 201 nM | 222 nM |
| CO[C@H]1C[C@@H]2CC[C@@H](C)[C@@](O)(O2)C(=O)C(=O)N2CCCC[C@H]2C(=O)O[C@H]([C@H](C)C[C@@H]2CC[C@@H](OP(C)(C)=O)[C@H](OC)C2)CC(=O)[C@H](C)/C=C(\C)[C@@H](O)[C@@H](OC)C(=O)[C@H](C)C[C@H](C)/C=C/C=C/C=C/1C [Ridaforolimus] | 0.663 nM | 0.221 nM | 1.55 nM | 0.319 nM | 2.85 nM | 1.26 nM | 0.496 nM | 1.87 nM | 1.02 nM | > 100 nM | > 100 nM | > 100 nM | > 100 nM | > 100 nM | > 100 nM |
